Measurements reported in US11884649B2, “IRE1α inhibitors and uses thereof” (The Regents of the University of California, priority 2020, dated 2024).

Assays:
IRE1α* = molecular target: T1, IRE1α* (Homo sapiens, UniProt O75460); test: In vitro kinase activity assay (IRE1α kinase inhibition); type: biochemical; conditions: for IC50: IRE1α kinase inhibition, read-out: IC50 IRE1a; for Ki: read-out: Inhibition of IRE1α*'s kinase activity, Ki
T1 construct: human IRE1α (residues 547-977, IRE1α*) was expressed in SF9 insect cells; His6 (N); made in house; host or cells: Sf9 insect cells (Bac-to-Bac baculovirus)
T1 sequence (O75460 547-977): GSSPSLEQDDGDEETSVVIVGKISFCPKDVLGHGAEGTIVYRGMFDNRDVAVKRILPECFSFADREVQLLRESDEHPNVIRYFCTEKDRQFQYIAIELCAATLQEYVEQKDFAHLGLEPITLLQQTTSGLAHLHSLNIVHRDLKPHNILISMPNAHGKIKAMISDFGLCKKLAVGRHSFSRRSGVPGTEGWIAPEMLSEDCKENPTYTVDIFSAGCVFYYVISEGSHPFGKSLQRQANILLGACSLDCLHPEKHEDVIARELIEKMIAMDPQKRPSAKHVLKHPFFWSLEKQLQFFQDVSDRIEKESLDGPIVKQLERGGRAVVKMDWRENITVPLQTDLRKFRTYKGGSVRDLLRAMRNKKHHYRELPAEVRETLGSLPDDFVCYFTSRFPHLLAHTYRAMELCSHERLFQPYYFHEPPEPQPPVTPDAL
Procedure: A construct containing the cytosolic kinase and RNase domains of human IRE1α (residues 547-977, IRE1α*) was expressed in SF9 insect cells by using the Bac-to-Bac baculovirus expression system (Invitrogen) with a His6 tag at the N-terminus and purified with a nickel-nitriloacetic acid (Qiagen) column. To generate dP-IRE1α*, we removed basal phosphorylation sites by incubating IRE1α* with λ-PPase (New England Biolabs) at a molar ratio of 5:1 (IRE1α*: λ-PPase) in 50 mM HEPES pH 7.5, 100 mM NaCl, 1 mM MnCl2, 2 mM dithiothreitol (DTT) and 0.01% Brij 35 detergent (v/v) overnight at 4° C. Dephosphorylation was verified through western blotting using a universal phospho-protein detection agent (biotin-pIMAGO (Tymora Analytical Operations, Cat. No.: FL800) and imaged using a streptavidin-linked fluorophore.
In Vitro Kinase Activity Assay
Inhibitors (initial concentration of 10 or 60 μM, three-fold serial dilutions) were incubated with IRE1α* in cleavage buffer (20 mM HEPES, 0.05% Triton X-100 (v/v), 50 mM KCl, 1 mM MgCl2, 1 mM DTT, pH 7.5) for 30 min, followed by incubation with 10 μCi [γ^32P] ATP (3,000 Ci mmol^−1, PerkinElmer) at 23° C. for 3 hours. Samples were then spotted onto glass fiber paper (Easytab-C Glass Fiber Filter Paper, Perkin Elmer) and washed in twice with 0.5% phosphoric acid and autoradiographed using a GE Typhoon FLA 9000 Imager. Blots were quantitated using ImageQuant software. The percent inhibition was quantified by setting the background (no kinase well) as 0 and standardizing to IRE1α* without compound treatment (IRE1α*+DMSO). Dose-response curves were fit using “one-site fit log IC50” parameter using GraphPad Prism analysis software.
Compound Characterization (IC50 IRE1α Kinase Inhibition)

XBP1 mRNA splicing = XBP1 mRNA splicing in INS-1 cells conditionally overexpressing IRE1α (Dox); type: cell-based, rat; conditions: 3, 10 μM for 1 hour, then Dox (1 μg/mL) for 4 hours
Procedure: (§1) RNA Isolation, Quantitative Real-Time PCR, and Primers
(§2) INS-1 or isogenic IRE1α-overexpressing INS-1 cells were plated onto Poly-D-Lysine coated tissue culture plate and grown for 48 hrs. Inhibitors or DMSO were added to the media and incubated for 1 hour at 37° C. with 5% CO2 prior to addition of ER stress agents or Dox as indicated. RNA was isolated from whole cells using either QIAGEN RNeasy Mini kits or Trizol (Invitrogen) and reverse transcribed as above to obtain total cDNA. Then, XBP-1 primers were used to amplify an XBP-1 amplicon spanning the 26 nt intron from the cDNA samples in a regular 3-step PCR. Thermal cycles were: 5 min at 95° C., 30 cycles of 30 s at 95° C., 30 s at 60° C., and 1 min at 72° C., followed by 72° C. for 15 min, and hold at 4° C. Primers used for XBP-1 mRNA splicing were as follows: sense primer XBP1.3 S (5′ […]-3′ (SEQ ID NO:2)) and antisense primer XBP1.2AS (5′-[…]-3′ (SEQ ID NO:3)). PCR fragments were then digested by PstI, resolved on 3% agarose gels, stained with EtBr and quantified by densitometry using ImageJ (NIH). For standard mRNA detection, generally […] total RNA was reverse transcribed using the QuantiTect Reverse Transcription Kit (QIAGEN). For qPCR, we used SYBR green (QIAGEN) and StepOnePlus Real-Time PCR System (Applied Biosystems). Thermal cycles were: 5 min at 95° C., 40 cycles of 15 sec at 95° C., 30 sec at 60° C. Gene expression levels were normalized to Beta Actin. Primers used for qPCR of RIDD targets were as follows: Beta Actin Fwd: 5′-[…]-3′ (SEQ ID NO:4), Beta Actin Rev: 5′-[…]-3′ (SEQ ID NO:5), Insulin 1 Fwd: 5′-GTCCTCTGGGAGCCCAAG-3′ (SEQ ID NO:6), Insulin 1 Rev: 5′-ACAGAGCCTCCACCAGG-3′ (SEQ ID NO:7), Insulin 2 Fwd: 5′-ATCCTCTGGGAGCCCCGC-3′ (SEQ ID NO:8), Insulin 2 Rev: 5′-AGAGAGCTTCCACCAAG-3′ (SEQ ID NO:9), Blos1 Fwd: 5′-[…]-3′ (SEQ ID NO:10), and Blos1 Rev: 5′-[…]-3′ (SEQ ID NO:11).
(§3) RNA was extracted using Trizol (Invitrogen), DNaseI treated, and cDNA products encompassing the intron amplified by QuantiTect Reverse Transcription Kit (Qiagen). sense Primer rXBP Forward (5′-[…]-3′ (SEQ ID NO:12)) and antisense primer rXBP Reverse (5′-[…]-3′ (SEQ ID NO:13)) were used. PCR fragments were digested by PstI, resolved on 3% agarose gels, stained with EtBr, and quantified by densitometry.
as §3, with “XBP1 splicing for FIGS. 33A-33F: RNA” for “RNA”, “(Invitrogen),” for “(Invitrogen), DNaseI treated, and”, “(Qiagen). Sense” for “(Qiagen). sense”, “rXBP splicing” for “rXBP”

[1] = test system: RIDD (IRE1α-dependent mRNA decay); test: Real-time PCR of RIDD mRNA targets in INS-1 cells overexpressing IRE1α (Dox); type: cell-based, rat; conditions: 3, 10 μM for 1 hour, then Dox (5 ng/mL) for 24 hours
Procedure: as §1, §2
Real-Time PCR (Q-PCR) used SYBR green and Step OnePlus Real-Time PCR System (Applied Biosystems). Thermal cycles were: 5 min at 95° C., 40 cycles of 15 s at 95° C., 30 s at 60° C. Gene expression levels were normalized to GAPDH. Q-PCR Sense/antisense primers used: Rat GAPDH, 5′-[…]-3′ (SEQ ID NO:14) and 5′-[…]-3′ (SEQ ID NO:15); Rat Ins1, 5′-GTCCTCTGGGAGCCCAAG-3′ (SEQ ID NO:6) and 5′-ACAGAGCCTCCACCAGG-3′ (SEQ ID NO:7); Rat Pdia4, 5′-CGTCTCGCCCTGATTCGT-3′ (SEQ ID NO:16) and 5′-[…]-3′ (SEQ ID NO:17); Rat Blos1, 5′-[…]-3′ (SEQ ID NO:18) and 5′-TGTCCAGTTCGATGCTCCG-3′ (SEQ ID NO:19).
Real-time PCR for FIGS. 34A-34F: Real-Time PCR (Q-PCR) used SYBR green and Step OnePlus Real-Time PCR System (Applied Biosystems). Thermal cycles were: 5 min at 95° C., 40 cycles of 15 s at 95° C., 30 s at 60° C. Gene expression levels were normalized to GAPDH. Q-PCR Sense/antisense primers used: Rat GAPDH, 5′-[…]-3′ (SEQ ID NO:20) and 5′-[…]-3′ (SEQ ID NO:21); Rat Ins1, 5′-GTCCTCTGGGAGCCCAAG-3′ (SEQ ID NO:6) and 5′-ACAGAGCCTCCACCAGG-3′ (SEQ ID NO:7); Rat Ins2, 5′-ATCCTCTGGGAGCCCCGC-3′ (SEQ ID NO:8) and 5′-AGAGAGCTTCCACCAAG-3′ (SEQ ID NO:9); Rat Pdia4, 5′-[…]-3′(SEQ ID NO:22) and 5′-[…]-3′ (SEQ ID NO:23); Rat Blos1, 5′-[…]-3′ (SEQ ID NO:18) and 5′-TGTCCAGTTCGATGCTCCG-3′ (SEQ ID NO:19).

| SMILES | IC50 (IRE1α*) | Ki (IRE1α*) | % spliced XBP1 amplicons (XBP1 mRNA splicing) | RIDD mRNA targets (Ins1, Ins2, Pdia4) [1] |
| --- | --- | --- | --- | --- |
| Cc1c(F)c(NS(=O)(=O)CC(F)(F)F)c2ccccc2c1Oc1ncccc1-c1ccnc(N[C@@H]2CNC[C@@H](F)C2)n1 [LBC-0000399, 2,2,2-trifluoro-N-(2-fluoro-4-((3-(2-(((3S,5S)-5-fluoropiperidin-3-yl)amino)pyrimidin-4-yl)pyridin-2-yl)oxy)-3-methylnaphthalen-1-yl) ethane-1-sulfonamide] | 5.1 nM |  |  |  |
| Cc1c(F)c(NS(C)(=O)=O)c2ccccc2c1Oc1ncccc1-c1ccnc(N[C@H]2CCCNC2)n1 [LBC-0000401, (S)—N-(2-fluoro-3-methyl-4-((3-(2-(piperidin-3-ylamino)pyrimidin-4-yl)pyridin-2-yl)oxy)naphthalen-1-yl) methane sulfonamide] | 16 nM |  |  |  |
| N[C@H]1CC[C@H](Nc2nccc(-c3cccnc3Oc3cccc4c(NS(=O)(=O)C5CCC5)cccc34)n2)CC1 [compound 6, N-(5-(3-(2-((1r,4r)-4-aminocyclohexylamino)pyrimidin-4-yl)pyridin-2-yloxy)naphthalen-1-yl) cyclobutanesulfonamide] |  | 98 nM |  |  |
| O=S(=O)(CC(F)(F)F)Nc1ccc(Oc2ncccc2-c2ccnc(N[C@@H]3CNC[C@@H](F)C3)n2)c2ccccc12 [LBC-0000398, 2,2,2-trifluoro-N-(4-((3-(2-(((3S,5S)-5-fluoropiperidin-3-yl)amino)pyrimidin-4-yl)pyridin-2-yl)oxy)naphthalen-1-yl) ethane-1-sulfonamide] | 7.2 nM |  |  |  |
| N[C@H]1CC[C@H](Nc2nccc(-c3cccnc3Oc3ccc(NS(=O)(=O)C4CC4)c4ccccc34)n2)CC1 [compound 5, N-(4-(3-(2-((1r,4r)-4-aminocyclohexylamino)pyrimidin-4-yl)pyridin-2-yloxy)naphthalen-1-yl)cyclopropanesulfonamide] |  | 140 nM |  |  |
| Cc1cc(NS(=O)(=O)CC(F)(F)F)c2ccccc2c1Oc1ncccc1-c1ccnc(N[C@H]2CCCNC2)n1 [LBC-0000389, (S)-2,2,2-trifluoro-N-(3-methyl-4-((3-(2-(piperidin-3-ylamino)pyrimidin-4-yl)pyridin-2-yl)oxy)naphthalen-1-yl) ethane sulfonamide] | 8 nM |  |  |  |
| Cc1cc(NS(=O)(=O)C2CC2)c2ccccc2c1Oc1ncccc1-c1ccnc(N[C@@H]2CNC[C@@H](F)C2)n1 [LBC-412, N-(4-((3-(2-(((3S,5S)-5-fluoropiperidin-3-yl)amino)pyrimidin-4-yl)pyridin-2-yl)oxy)-3-methylnaphthalen-1-yl) cyclopropane sulfonamide] | 13 nM |  | do not suppress XBP mRNA splicing | block RIDD |
| Cc1cc(NS(=O)(=O)C2(C)CC2)c2ccccc2c1Oc1ncccc1-c1ccnc(N[C@@H]2CNC[C@@H](F)C2)n1 [LBC-413, N-(4-((3-(2-(((3S,5S)-5-fluoropiperidin-3-yl)amino)pyrimidin-4-yl)pyridin-2-yl)oxy)-3-methylnaphthalen-1-yl)-1-methylcyclopropane-1-sulfonamide] | 32 nM |  | do not suppress XBP mRNA splicing | block RIDD |
| Cc1cc(NS(=O)(=O)CC2CC2)c2ccccc2c1Oc1ncccc1-c1ccnc(N[C@@H]2CNC[C@@H](F)C2)n1 [LBC-409, 1-cyclopropyl-N-(4-((3-(2-(((3S,5S)-5-fluoropiperidin-3-yl)amino)pyrimidin-4-yl)pyridin-2-yl)oxy)-3-methylnaphthalen-1-yl)methanesulfonamide] | 7.4 nM |  | do not suppress XBP mRNA splicing | block RIDD |
| Nc1ccc(Oc2ncccc2-c2ccnc(N[C@H]3CC[C@H](N)CC3)n2)cc1F [compound 1, (1r,4r)-N1-(4-(2-(4-amino-3-fluorophenoxy)pyridin-3-yl)pyrimidin-2-yl) cyclohexane-1,4-diamine] |  | 480 nM |  |  |
| Cc1c(F)c(NS(=O)(=O)CC(F)(F)F)c2ccccc2c1Oc1ncccc1-c1ccnc(N[C@H]2CCCNC2)n1 [LBC-0000390, (S)-2,2,2-trifluoro-N-(2-fluoro-3-methyl-4-((3-(2-(piperidin-3-ylamino)pyrimidin-4-yl)pyridin-2-yl)oxy)naphthalen-1-yl) ethane-1-sulfonamide] | 9.5 nM |  |  |  |
| Cc1cc(NS(=O)(=O)C2CCC2)c2ccccc2c1Oc1ncccc1-c1ccnc(N[C@@H]2CNC[C@@H](F)C2)n1 [LBC-411, N-(4-((3-(2-(((3S,5S)-5-fluoropiperidin-3-yl)amino)pyrimidin-4-yl)pyridin-2-yl)oxy)-3-methylnaphthalen-1-yl)cyclobutanesulfonamide] | 4.4 nM |  | do not suppress XBP mRNA splicing | block RIDD |
